Source: patent US10028931B2, “Synergistic compositions for treating microbial infections” (UNIVERSITY OF ROCHESTER, priority 2014, dated 2018)
Values after ≈ are worked out from the molar mass of the structure shown. Read-outs that look alike come from different tables or passages of the source.

Tests used:
[1] = test system: Staphylococcus aureus strain UAMS-1; assay: Antimicrobial susceptibility testing (MIC, broth microdilution); assay type: cell-based; conditions: S. aureus UAMS-1, Mueller Hinton broth, 37° C.
Method: The RNase P inhibitors described herein were tested for antimicrobial activity toward Staphylococcus aureus strain UAMS-1. Individual wells of a 96-well microtiter plate were inoculated with ˜1×10^5 colony-forming units (CFU) of the indicated organism, containing two-fold increasing concentrations (from 0 to 256 μg mL^−1) of the indicated antibiotic or putative RnpA inhibitor, and incubated at 37° C. for 18 hours in Mueller Hinton broth. The MIC was defined as the lowest concentration of antibiotic in which there was no visible bacterial growth in the wells. Minimum bactericidal concentration testing was performed by enumerating the bacterial cells in each of the wells containing treatments at and above the MIC.

RnpA = target: T1, RnpA (Staphylococcus aureus, UniProt P0A0H5); assay: RnpA mRNA degradation activity assay; assay type: biochemical
T1 sequence (P0A0H5 1-117): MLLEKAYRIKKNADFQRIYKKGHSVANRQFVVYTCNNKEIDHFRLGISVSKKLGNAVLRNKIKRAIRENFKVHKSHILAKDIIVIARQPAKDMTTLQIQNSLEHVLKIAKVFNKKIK
Method: The RNase P inhibitors described herein were tested for activity toward RnpA mRNA degradation activity. Either 1 μg of total S. aureus RNA or 1 pmol of in vitro synthesized spa mRNA was incubated with 20 pmol RnpA at 37° C. for 15 to 30 min in a reaction buffer (50 mM Tris-HCl pH 8.0, 2 mM NaCl, 2 mM MgCl2) in the absence or presence of the indicated compound. Reactions were stopped by adding an equal volume of 2×RNA loading dye (95% formamide, 0.025% SDS, 0.025% bromophenol blue, 0.025% xylene cyanol FF, 0.5 mM EDTA), run on a denaturing 1.0% agarose-0.66 M formaldehyde gel and stained with ethidium bromide. RNA substrates and corresponding degradation products were visualized using a FluorChem 5500 system (Alpha Innotech; San Leandro, Calif.). The inhibitory effects of the test compounds were measured using Image J densitometry software (National Institutes of Health; Bethesda, Md.) to quantify the signal intensity of the RNA band(s) in the negative control (RNA alone), positive control (RnpA+RNA+DMSO), and experimental samples (RnpA+RNA+test compound). The percent enzyme inhibition of test compounds was calculated using the following equation: Percent inhibition=[(experimental signal-positive control)/(negative control signal-positive control signal)]*100.

[2] = target: T2, S. aureus RNase P (RnpA+rnpB) (Staphylococcus aureus, UniProt P0A0H5); assay: RNase P activity assay (precursor tRNA processing); assay type: biochemical; conditions: gel densitometry
T2 sequence (P0A0H5 1-117): T1 sequence (P0A0H5 1-117)
Method: The RNase P inhibitors described herein were tested for activity toward RNase P. S. aureus RNase P activity assays were performed in low salt buffer (50 mM Tris-HCl pH 8.0, 5 mM MgCl2) or in high salt buffer (50 mM Tris-HCl pH 8.0, 100 mM MgCl2, 800 mM NH4Cl). For all reactions, ptRNATyr, tRNATyr, or rnpB RNA species were first denatured by heating to 95° C. for 3 minutes, and then slowly cooling the mixtures to room temperature. RNase P was reconstituted by mixing an equal molar ratio of RnpB and RnpA for 15 min at 37° C. Precursor tRNA processing reactions (20 μL) were performed by mixing 1.25 pmol RNase P (RnpA+rnpB), RnpA, or rnpB with an equal volume of 2× low salt buffer or 2× high salt buffer and 10 pmol ptRNATyr. Mixtures were incubated for 15 min at 37° C. Reactions were stopped by adding 20 μL 2×RNA loading dye (95% formamide, 0.025% SDS, 0.025% bromophenol blue, 0.025% xylene cyanol FF, 0.5 mM EDTA), and 30 μL of each sample was electrophoresed in a 7 M urea/8% polyacrylamide gel and was then stained with ethidium bromide (0.5 μg/ml). Where indicated, reactions were repeated in the presence of the indicated amount of putative RnpA inhibitors or dimethyl sulfoxide (DMSO). A FluorChem 5500 imaging system was used to visualize the RNA, and the relative abundance of the mature tRNATyr band in the positive control (RNase P+DMSO) or in samples containing test compounds was measured using Image J densitometry software (NIH). The percent RNase P activity was then calculated using the following calculation: (test compound tRNATyr signal/positive control tRNATyr signal)*100.

[3] = Staphylococcus aureus, UAMS1, 18 h, read-out: MIC
[4] = RnpA mRNA degradation, gel densitometry, read-out: RnpA IC50
[5] = ptRNATyr processing, read-out: RNase P IC50

Row | SMILES | MIC [1, 3] [µg/mL] | IC50 (RnpA; [4]) [µM] | IC50 [2, 5] [µM] | MIC ([1]; 18 hours) [µg/mL] | IC50 (RnpA) [µM] | MIC ([1]; Staphylococcus aureus, UAMS1, 18 hours, read-out: MIC) [µg/mL] | IC50 ([2]; RNase P IC50, ptRNATyr processing) [µM]
1 | CC(C)c1ccc(OCC(=O)NNC(=O)c2ccco2)cc1 [MC-190034] | > 256 | > 500 | > 500 |  |  |  | 
2 | CC(C)c1ccc(OCC(=O)NNC(=O)c2cccs2)cc1 [MC-190035] | > 256 | > 500 | > 500 |  |  |  | 
3 | CC(C)c1ccc(OCC(=O)NNC(=O)c2ccsc2)cc1 [MC-190036] | > 256 | > 500 | > 500 |  |  |  | 
4 | CC(C)c1ccc(OCC(=O)NNC(=O)Cc2ccco2)cc1 [MC-190038] | > 256 | > 500 | > 500 |  |  |  | 
5 | CC(C)c1ccc(OCC(=O)NNC(=S)NC(=O)c2cnco2)cc1 [MC-190039] | 64 (≈ 177 µM) |  |  |  | > 500 |  | 
6 | Cc1ccc(C(=O)NNC(=O)COc2ccc(C(C)C)cc2)o1 [MC-190041] | > 256 | 470 | 385 |  |  |  | 
7 | Cc1ccoc1C(=O)NC(=S)NNC(=O)COc1ccc(C(C)C)cc1 [MC-190043] | 32 (≈ 85.2 µM) | 20 | 150 |  |  |  | 
8 | CC(C)c1ccc(OCC(=O)NNC(=S)NC(=O)c2ccncc2)cc1 [MC-190050] | 128 (≈ 344 µM) |  | 150 |  | > 500 |  | 
9 | CC(C)c1ccc(OCC(=O)NNC(=O)c2cc3ccccc3[nH]2)cc1 [MC-190051] | 128 (≈ 364 µM) | 45 | 2 |  |  |  | 
10 | CC(C)c1ccc(OCC(=O)NNC(=O)c2cc3ccccc3n2C)cc1 [MC-190057] | > 256 | > 500 | 70 |  |  |  | 
11 | COc1ccc2cc(C(=O)NNC(=O)COc3ccc(C(C)C)cc3)[nH]c2c1 [MC-190059] | > 256 | 150 | 80 |  |  |  | 
12 | O=C(NC(=S)NNC(=O)c1ccccc1O)c1ccco1 [MC-190069] |  | > 500 | 470 | 64 (≈ 210 µM) |  |  | 
13 | COc1ccc(OCC(=O)NNC(=S)NC(=O)c2ccco2)cc1 [MC-190070] | 64 (≈ 183 µM) | > 500 | > 500 |  |  |  | 
14 | O=C(CCc1ccccc1)NNC(=S)NC(=O)c1ccco1 [MC-190080] | > 128 |  |  |  |  |  | 
15 | CC(C)c1ccc(OCC(=O)NNC(=S)NC(=O)c2cnc3ccccc3c2)cc1 [MC-190082] | > 128 |  |  |  |  |  | 
16 | CC(C)c1ccc(CCNc2c(NCc3ccco3)c(=O)c2=O)cc1 [MC-190083] | > 128 |  |  |  |  |  | 
17 | CC(C)c1ccc(OCC(=O)NNC(=S)NC(=O)Cc2ccco2)cc1 [MC-190084] | 16 (≈ 42.6 µM) |  |  |  |  |  | 
18 | Cc1ccc(CNc2c(NCCc3ccc(C(C)C)cc3)c(=O)c2=O)o1 [MC-190085] | > 128 |  |  |  |  |  | 
19 | CC(C)c1ccc(CCNc2c(NCc3ccccn3)c(=O)c2=O)cc1 [MC-190086] | > 128 |  |  |  |  |  | 
20 | CC(C)c1ccc(CCNc2c(NCc3nc4ccccc4[nH]3)c(=O)c2=O)cc1 [MC-190087] | > 128 |  |  |  |  |  | 
21 | CC(C)c1ccc(CCNc2c(NCc3cc4ccccc4o3)c(=O)c2=O)cc1 [MC-190088] | > 128 |  |  |  |  |  | 
22 | CC(C)c1ccc(CCNc2c(NCCc3ccco3)c(=O)c2=O)cc1 [MC-190090] | 256 (≈ 726 µM) | 50 |  |  |  |  | 
23 | CC(C)c1ccc(CNc2c(NCc3ccco3)c(=O)c2=O)cc1 [MC-190091] | 128 (≈ 395 µM) | 25 |  |  |  |  | 
24 | CC(C)c1ccc(CNc2c(NCCc3ccco3)c(=O)c2=O)cc1 [MC-190092] | 256 (≈ 756 µM) | 250 | 250 |  |  |  | 
25 | CC(C)c1ccc(OCC(=O)NNC(=S)NC(=O)c2ccoc2)cc1 [MC-190098] | 16 (≈ 44.3 µM) |  | 150 |  |  |  | 
26 | COc1ccccc1C(=O)NNC(=S)NC(=O)c1ccco1 [ST5525332] |  |  |  |  | > 500 | 8 (≈ 25.1 µM) | > 500

Second part, led by results:

Row | MIC [1, 3] [µg/mL] | IC50 (RnpA; [4]) [µM] | IC50 [2, 5] [µM] | MIC ([1]; 18 hours) [µg/mL] | SMILES | IC50 (RnpA) [µM] | MIC ([1]; Staphylococcus aureus, UAMS1, 18 hours, read-out: MIC) [µg/mL] | IC50 ([2]; RNase P IC50, ptRNATyr processing) [µM]
27 | > 128 | > 500 | > 500 |  | O=C(NNC(=S)NC(=O)c1ccco1)c1ccncc1 [ST4145527] |  |  | 
28 | 16 (≈ 50.1 µM) | > 500 | > 500 |  | COc1ccc(C(=O)NNC(=S)NC(=O)c2ccco2)cc1 [ST5254069] |  |  | 
29 | 128 (≈ 441 µM) | > 500 | > 500 |  | O=C(NNC(=S)NC(=O)c1ccco1)c1cccnc1 [ST5254078] |  |  | 
30 | 16 (≈ 50.7 µM) | 90 | 75 |  | O=C(/C=C/c1ccccc1)NC(=S)NNC(=O)c1ccco1 [ST5254083] |  |  | 
31 | > 128 |  | > 500 |  | O=C(NC(=S)NNC(=O)c1ccco1)c1cccnc1 [ST5254088] |  |  | 
32 | 64 (≈ 200 µM) | > 500 | 180 |  | COc1ccc(C(=O)NC(=S)NNC(=O)c2ccco2)cc1 [ST5254089] |  |  | 
33 | 16 (≈ 42.8 µM) |  | 155 |  | Cc1ccc(OCC(=O)NNC(=S)NC(=O)COc2ccccc2)cc1 [ST5521633] |  |  | 
34 | 32 (≈ 93.2 µM) | > 500 | > 500 |  | Cc1ccccc1C(=O)NNC(=S)NC(=O)COc1ccccc1 [ST5521953] |  |  | 
35 | 32 (≈ 74.7 µM) | > 500 | 425 |  | COc1ccc(OCC(=O)NNC(=S)NC(=O)c2ccc(Br)o2)cc1 [ST5523216] |  |  | 
36 | 32 (≈ 81.2 µM) | 175 | 65 |  | Cc1cc(Cl)ccc1OCC(=O)NNC(=S)NC(=O)/C=C/c1ccco1 [ST5524187] |  |  | 
37 | > 128 |  | > 500 |  | O=C(NNC(=S)NC(=O)c1ccco1)c1ccc(NC(=O)c2ccccc2)cc1 [ST5524510] |  |  | 
38 | 32 (≈ 89 µM) | 220 | 80 |  | Cc1ccccc1OCC(=O)NNC(=S)NC(=O)/C=C/c1ccco1 [ST5524973] |  |  | 
39 | 32 (≈ 68.9 µM) | 300 | 70 |  | CC(C)(C)c1ccc(C(=O)Nc2ccc(C(=O)NNC(=S)NC(=O)c3ccco3)cc2)cc1 [ST5524997] |  |  | 
40 |  | 275 | 125 |  | CCC(C)c1ccc(OCC(=O)NNC(=S)NC(=O)C2CCCCC2)cc1 (stereo not shown) [ST5525281] |  |  | 
41 | 64 (≈ 139 µM) | 40 | > 500 |  | CCC(C)c1ccc(OCC(=O)NNC(=S)NC(=O)c2ccc(-c3ccccc3)cc2)cc1 (stereo not shown) [ST5525289] |  |  | 
42 | > 128 | > 500 | 145 |  | CC(C)C(=O)Nc1ccc(C(=O)NNC(=S)NC(=O)c2ccco2)cc1 [ST5525955] |  |  | 
43 | > 128 | 80 | 90 |  | CCCCC(=O)Nc1ccc(C(=O)NNC(=S)NC(=O)c2ccco2)cc1 [ST5526667] |  |  | 
44 | > 128 | > 500 | 200 |  | O=C(CNC(=O)C1CCCCC1)NNC(=S)NC(=O)c1ccco1 [ST5526682] |  |  | 
45 | 64 (≈ 149 µM) | > 500 | 280 |  | CCOc1ccc(C(=O)NC(=S)NNC(=O)COc2ccc(C(C)CC)cc2)cc1 (stereo not shown) [ST5528171] |  |  | 
46 | > 128 |  | > 500 |  | COCCOC(=O)CCC(=O)NC(=S)NNC(=O)COc1ccc(C(C)C)cc1 [ST5528839] |  |  | 
47 | > 128 | > 500 | 490 |  | CCCCCCCC(=O)NC(=S)NNC(=O)COc1ccc(C(C)CC)cc1 (stereo not shown) [ST5528863] |  |  | 
48 | 64 (≈ 177 µM) | > 500 | > 500 |  | CC(C)COc1ccc(C(=O)NNC(=S)NC(=O)c2ccco2)cc1 [ST5529685] |  |  | 
49 | > 128 | 70 | > 500 |  | CC(C)CNC(=S)NNC(=O)c1ccc(COc2ccc(C(C)(C)C)cc2)o1 [ST5607017] |  |  | 
50 | > 128 |  | > 500 |  | O=C(Cc1ccccc1)NNC(=S)NC(=O)c1ccco1 [ST5682126] |  |  | 
